Reference: patent US11091490B2, “3-amino-1,5-dihydro-pyrazolo[3,4-d]pyrimidin-4-ones as cyclin dependent kinase inhibitors” (Oncotyrol Center for Personalized Cancer Medicine GMBH, priority 2016, dated 2021)
Values joined by “and” are separate entries in the source; they are usually repeats but may differ in a detail not shown here. Equal entries are not always repeated. Where two headings read alike, the source gives them in different places.

Key:
NCI-H929/GN2 = test: Multiple myeloma cells in mono- and co-culture with osteoblasts, imaging based detection (NCI-H929); format: cell-based
Protocol: (§1) Compound 86 has been compared with the key compound of WO 2000/21926 A2 (Example 121) in an imaging based detection system.
(§2) Two different multiple myeloma (MM) cell lines (RPMI-8226 (DSMZ, ACC 402), NCI-H929 DSMZ, ACC 163) have been used and were cultured in mono- and co-culture with osteoblasts (OB) (Osteoblasts were obtained by culturing hMSCs with a differentiation inducing medium for two weeks) in accordance with the method of Karadag A. et al. Journal of Bone and Mineral Research Vol. 15, No. 10, 2000 page 1935-43.

RPMI-8226/GN1 = test: Multiple myeloma cells in mono- and co-culture with osteoblasts, imaging based detection (RPMI-8226); format: cell-based
Protocol: as §1, §2

SMILES: CC(C)c1nn(-c2c(Cl)cc(Cl)cc2Cl)c2nc(Cc3ccc(NC(=O)C4CN(C)CCN4C)cc3)[nH]c(=O)c12 (centres unmarked) [Reference compound, reference compound]
- EC50 (NCI-H929/GN2; Homo sapiens, NCI-H929, NCI-H929/GN2, co-culture with osteoblasts, read-out: co-culture (+ OB) EC50): 160 nM
- EC50 (NCI-H929/GN2; Homo sapiens, NCI-H929, NCI-H929/GN2, mono-culture, read-out: mono-culture EC50): 50 nM
- EC50 (NCI-H929/GN2; NCI-H929/GN2, co-culture with osteoblasts, read-out: co-culture (+ OB) EC50): 150 nM
- EC50 (NCI-H929/GN2; NCI-H929/GN2, mono-culture, read-out: mono-culture EC50): 65 nM
- EC50 (RPMI-8226/GN1; Homo sapiens, RPMI-8226, RPMI-8226/GN1, co-culture with osteoblasts, read-out: co-culture (+ OB) EC50): 420 nM
- EC50 (RPMI-8226/GN1; Homo sapiens, RPMI-8226, RPMI-8226/GN1, mono-culture, read-out: mono-culture EC50): 120 nM
- EC50 (RPMI-8226/GN1; RPMI-8226/GN1, co-culture with osteoblasts, read-out: co-culture (+ OB) EC50): 520 nM and 650 nM
- EC50 (RPMI-8226/GN1; RPMI-8226/GN1, mono-culture, read-out: mono-culture EC50): 200 nM and 210 nM
